Reference: patent publication US8426342B2, “Method for weed control in lawn” (priority 2008, dated 2013)

Assays:
Assay in all cases: Effectivity testing against weed plants ex. 5.1, Abbott %
Format in all cases: in vivo
[1] = test system: Aphanes arvensis; settings: 151 DAT
Description: (§1) Each plot was divided by different pre-treatments 1 week before application of the trial treatments: • A) Pre-treatment with glyphosate-isopropylammonium allowing to evaluate in this section the pre-emergence effect against weeds. • B) No pre-treatment, present winter annual weeds are received a post-emergence application.
(§2) 2005, applied on dormant turf in winter
(§3) Effectivity was rated in percent (%) herbicidal effect compared with untreated control according to the method of Abbott according to the formula [(X−Y)/X]100 where X is the absolute level/scoring of the control plants, Y is the level/scoring of the treated plants. 100% efficacy means full control; 0% efficacy means no control of the weed; all ratings above 80% are usually acceptable.

[2] = test system: Veronica arvensis
Description: as §1, §2, §3

[3] = test system: Stellaria media
Description: as §1, §2, §3

Compound: Cc1ccc2c(c1)[C@H](Nc1nc(N)nc([C@@H](C)F)n1)[C@@H](C)C2 (stereo in doubt) [(A21)/(A22), indaziflam]
- Herbicidal effect (%) on Aphanes arvensis, Post-emergence application without pre-treatment ([1]; 25 g a.i./ha): 100%
- Herbicidal effect (%) on Aphanes arvensis, Pre-emergence application after pre-treatment ([1]; 25 g a.i./ha): 50%
- Herbicidal effect (%) on Aphanes arvensis, Post-emergence application without pre-treatment ([1]; 50 g a.i./ha): 33%
- Herbicidal effect (%) on Aphanes arvensis, Pre-emergence application after pre-treatment ([1]; 50 g a.i./ha): 100%
- Herbicidal effect (%) on Aphanes arvensis, Post-emergence application without pre-treatment ([1]; 75 g a.i./ha): 100%
- Herbicidal effect (%) on Aphanes arvensis, Pre-emergence application after pre-treatment ([1]; 75 g a.i./ha): 100%
- Herbicidal effect (%) on Veronica arvensis, Post-emergence application without pre-treatment ([2]; 25 g a.i./ha, 123 DAT): 100%
- Herbicidal effect (%) on Veronica arvensis, Pre-emergence application after pre-treatment ([2]; 25 g a.i./ha, 123 DAT): 81%
- Herbicidal effect (%) on Veronica arvensis, Post-emergence application without pre-treatment ([2]; 25 g a.i./ha, 157 DAT): 94%
- Herbicidal effect (%) on Veronica arvensis, Pre-emergence application after pre-treatment ([2]; 25 g a.i./ha, 157 DAT): 100%
- Herbicidal effect (%) on Veronica arvensis, Post-emergence application without pre-treatment ([2]; 50 g a.i./ha, 123 DAT): 75%
- Herbicidal effect (%) on Veronica arvensis, Pre-emergence application after pre-treatment ([2]; 50 g a.i./ha, 123 DAT): 100%
- Herbicidal effect (%) on Veronica arvensis, Post-emergence application without pre-treatment ([2]; 50 g a.i./ha, 157 DAT): 100%
- Herbicidal effect (%) on Veronica arvensis, Pre-emergence application after pre-treatment ([2]; 50 g a.i./ha, 157 DAT): 100%
- Herbicidal effect (%) on Veronica arvensis, Post-emergence application without pre-treatment ([2]; 75 g a.i./ha, 123 DAT): 100%
- Herbicidal effect (%) on Veronica arvensis, Pre-emergence application after pre-treatment ([2]; 75 g a.i./ha, 123 DAT): 100%
- Herbicidal effect (%) on Veronica arvensis, Post-emergence application without pre-treatment ([2]; 75 g a.i./ha, 157 DAT): 100%
- Herbicidal effect (%) on Veronica arvensis, Pre-emergence application after pre-treatment ([2]; 75 g a.i./ha, 157 DAT): 100%
- Herbicidal effect (%) on Stellaria media, Post-emergence application without pre-treatment ([3]; 25 g a.i./ha, 124 DAT): 100%
- Herbicidal effect (%) on Stellaria media, Pre-emergence application after pre-treatment ([3]; 25 g a.i./ha, 124 DAT): 75%
- Herbicidal effect (%) on Stellaria media, Post-emergence application without pre-treatment ([3]; 25 g a.i./ha, 151 DAT): 100%
- Herbicidal effect (%) on Stellaria media, Pre-emergence application after pre-treatment ([3]; 25 g a.i./ha, 151 DAT): 71%
- Herbicidal effect (%) on Stellaria media, Post-emergence application without pre-treatment ([3]; 50 g a.i./ha, 124 DAT): 100%
- Herbicidal effect (%) on Stellaria media, Pre-emergence application after pre-treatment ([3]; 50 g a.i./ha, 124 DAT): 100%
- Herbicidal effect (%) on Stellaria media, Post-emergence application without pre-treatment ([3]; 50 g a.i./ha, 151 DAT): 100%
- Herbicidal effect (%) on Stellaria media, Pre-emergence application after pre-treatment ([3]; 50 g a.i./ha, 151 DAT): 100%
- Herbicidal effect (%) on Stellaria media, Post-emergence application without pre-treatment ([3]; 75 g a.i./ha, 124 DAT): 100%
- Herbicidal effect (%) on Stellaria media, Pre-emergence application after pre-treatment ([3]; 75 g a.i./ha, 124 DAT): 100%
- Herbicidal effect (%) on Stellaria media, Post-emergence application without pre-treatment ([3]; 75 g a.i./ha, 151 DAT): 100%
- Herbicidal effect (%) on Stellaria media, Pre-emergence application after pre-treatment ([3]; 75 g a.i./ha, 151 DAT): 100%
